Five compounds from article PMC4506092, “Utilizing Chemical Genomics to Identify Cytochrome b as a Novel Drug Target for Chagas Disease” (PLoS Pathogens, 2015) can be followed below.

As a reminder, the EC50 is the concentration that produces a half-maximal response.

Several values for one entry are separate records, joined by “and”; a condition that tells them apart may be missing. Equal values may be shown once. Read-outs that look alike come from different tables or passages of the source.

Assay [1] relates to T. b. brucei bloodstream form. The assay is described as follows: T. b. brucei bloodstream form in vitro efficacy assay. The format is cell-based, Trypanosoma brucei brucei. The conditions noted are these: 48 hours, read-out: T. b. Brucei EC50, BSF. Here is the method: Trypanosoma brucei brucei (T. b. brucei) bloodstream form (strain Lister 427) was maintained in HMI-9 medium: IMDM (Iscove's Modified Dulbecco's Media), 10% heat-inactivated FBS, 10% Serum Plus medium supplement (SAFC biosciences), 1 mM hypoxanthine, 50 μM bathocuproine disulfonate.Na2, 1.5 mM cysteine, 1 mM pyruvate, 39 μg/mL thymidine, and 0.2 mM 2-mercapthoethanol) at 37°C / 5% CO2.
For compound screening, parasites were seeded into 384-well assay plates containing HMI-9 with pre-dispensed compounds (0.25% final DMSO concentration) at a density of 6,000 cells / well, and plates were then incubated for 48 hours at 37°C / 5% CO2. Cell viability was assessed using the CellTiter-Glo Luminescent Cell Viability Assay (Promega).

The test system of assay [2] is T. cruzi epimastigotes (GNF7686-resistant, DR). The assay can be described thus: T. cruzi epimastigote growth assay (CellTiter-Glo), GNF7686-resistant. The format is cell-based, Trypanosoma cruzi. As to the method: To determine compound activity on the T. cruzi epimastigote form, epimastigotes (20 μL; 2.5 × 10^5 parasites / mL) were added to 384-well assay plates containing 20 μL of LIT media with pre-dispensed compounds (0.2% DMSO final concentration) and incubated for seven days at 26°C / 0% CO2. Parasite viability was assessed at the end of this incubation period using the CellTiter-Glo Luminescent Cell Viability Assay (Promega). Luminescence as a measure of parasite viability was measured on the EnVision plate reader.
Resistant epimastigotes were cloned by the limiting dilution technique.
(In general: Cellular ATP, detected with luciferase, serves as a proxy for viable cell number.)

Assay [3] has as its system S. cerevisiae strain NF7061. The assay can be described thus: S. cerevisiae susceptibility assay, YPD (dextrose) medium. The format is cell-based, Saccharomyces cerevisiae. As to conditions: 24 hours. As to the method: (§1) The minimal inhibitory concentrations (MIC) of the compounds for inhibition of S. cerevisiae drug pump knock-out strain NF7061 (MATa his3Δ 1; leu2Δ 0; met15Δ 0; ura3Δ 0; snq2::KanMX; pdr5::KanMX; pdr1::NAT1; pdr3::KanMX; yap1::NAT1; pdr2::LEU2; yrm1::MET; yor1::LYS2) were determined by a modification of the microdilution technique described elsewhere. Briefly, two-fold dilutions of the compound solution in DMSO were made. They were added to each well of 96-well assay plate containing 200 μL per well of either YPD (1% Difco Yeast Extract, 2% Difco Bacto Peptone and 2% Dextrose) or YPG (3% of glycerol in replacement of 2% Dextrose in YP) medium. Early stationary yeast NF7061 cells grown in either medium were collected and resuspended to 2 × 10^5 cells / mL. Ten microliters of the yeast cell suspension were inoculated to each well of the plates containing medium and compound to achieve a final inoculum of approximately 10^4 CFU / mL. The plates were incubated at 30°C for 24 hours (containing YPD) or 48 hours (containing YPG).

The test system of assay [4] is S. cerevisiae strain NF7061. The assay is described as follows: S. cerevisiae susceptibility assay, YPG (glycerol) medium. The format is cell-based, Saccharomyces cerevisiae. The conditions noted are these: 48 hours. Here is the method: as §1
The test system of assay [5] is L. donovani axenic amastigotes. The assay is described as follows: Leishmania donovani axenic amastigote in vitro efficacy assay. The format is cell-based. As to conditions: 48 hours. As to the method: Leishmania donovani (L. donovani) axenic amastigotes (strain MHOM/SD/62/1S-CL2D) were maintained at 37°C / 5% CO2 in RPMI-1640 medium containing 4 mM L-glutamine, 20% heat inactivated FBS, 100 IU penicillin / 100 μg streptomycin per mL, 23 μM folic acid, 100 µM adenosine, 22 mM D-glucose, and 25 mM 2-(N-morpholino)ethanesulfonic acid (pH 5.5 adjusted at 37°C using 1M HCl).
For compound screening, axenic amastigotes were seeded into 384-well plates containing axenic amastigote medium with pre-dispensed compounds (0.25% final DMSO concentration) at a density of 9,600 cells / well. Plates were incubated for 48 hours at 37°C / 5% CO2. Cell viability was assessed using the CellTiter-Glo Luminescent Cell Viability Assay (Promega).

Assay [6] relates to L. donovani promastigotes. The assay can be described thus: Leishmania donovani promastigote proliferation assay. The format is cell-based.
Assay [7] relates to P. falciparum D10attB. The assay can be described thus: P. falciparum SYBR Green proliferation assay, D10attB line. The format is cell-based, Plasmodium falciparum. As to the method:
(§2) GNF7686 and cytochrome b inhibitors were assayed for activity on two Plasmodium falciparum (P. falciparum) lines: D10attB and yDHODH-D10attB. The D10attB line is reliant on the coenzyme Q-dependent malarial dihydroorotate dehydrogenase (PfDHODH), whereas the yDHODH-D10attB line expresses also the fumarate-utilizing Saccharomyces cerevisiae (S. cerevisiae) DHODH, which circumvents reliance on PfDHODH and renders this line fully resistant to cytochrome b inhibitors. The use of these two lines allows for distinction of selection of potent cytochrome b inhibitors as described in detail in the Results section. Growth and viability of P. falciparum cell lines (in the presence or absence of drug) in infected erythrocytes were assessed using a SYBR Green-based proliferation assay exactly as described previously.

The test system of assay [8] is P. falciparum yDHODH-D10attB. The assay is described as follows: P. falciparum SYBR Green proliferation assay, yDHODH-D10attB line. The format is cell-based, Plasmodium falciparum. Here is the method:
as §2

Assay [9] relates to T. b. brucei procyclics. The assay can be described thus: T. b. brucei procyclic form in vitro efficacy assay. The format is cell-based, Trypanosoma brucei brucei. As to conditions: 72 hours. Here is the method: For conversion from the bloodstream form to the procyclic form, bloodstream form parasites were transferred from HMI-9 medium to Differentiating Trypanosome Medium (DTM, pH = 7.2), consisting of: 6.8 g / L NaCl, 400 mg / L KCl, 200 mg / L CaCl2, 140 mg / L NaH2PO4.H2O, 200 mg / L MgSO4.7H2O, 7.94 g / L HEPES, 2.2 g / L NaHCO3, 110 mg / L sodium pyruvate, 10 mg / L phenol red, 14 mg / L hypoxanthine, 1 mg / L biotin, 760 mg / L glycerol, 640 mg / L proline, 236 mg / L glutamic acid, 1.34 g / L glutamine, 7.5 mg / L hemin (in 50 mM sodium hydroxide), 1X MEM amino acid solution (Invitrogen),1X MEM non-essential amino acids solution (Invitrogen), 28.2 mg / L bathocuproine disulfonate.Na2, 182 mg/L cysteine, 0.2 mM 2-mercaptoethanol, 15% heat-inactivated FBS, and 5 mM sodium citrate and cis-aconitate. Following medium exchange, parasites were incubated at a lower temperature (27°C / 5% CO2), monitored for change in morphology to procyclic parasites, and sub-cultured for long-term cultivation.
For compound screening, 20 μliters (5,000 parasites) of T. b. brucei procyclic culture were added to 384-well plate wells filled with 20 μliters of DTM medium and pre-dispensed compounds (0.25% final DMSO concentration). Plates were then incubated for 72 hours at 27°C / 5% CO2. Cell viability was assessed using the CellTiter-Glo Luminescent Cell Viability Assay (Promega).

Where [10] appears, read: Trypanosoma cruzi, 168 h, GNF7686-resistant T. cruzi culture, seven days, read-out: Epimastigote EC50, DR.
Setting [11] is: Saccharomyces cerevisiae, NF7061, MIC visual growth inhibition screen.
Setting [12] is: Plasmodium falciparum; read-out: P. falciparum EC50, D10attB.
Where [13] appears, read: Plasmodium falciparum; read-out: P. falciparum EC50, yDHODH-D10attB.
The mark [14] stands for this setting: MIC visual growth inhibition screen.

In the case of `O=C(Cn1ccnc1[N+](=O)[O-])NCc1ccccc1` [Benznidazole], the EC50 in assay [1] (Trypanosoma brucei) is over 25 µM; in assay [2] (setting [10]), 6700 ± 600 nM; in assay [3] (setting [11]), over 40 µM; in assay [4] (setting [11]) it was over 40000 nM; in [5] (Leishmania donovani), over 25 µM; in assay [6] (Leishmania donovani), over 25 µM. The EC50 in assay [7] (setting [12]) was over 12500 nM; in assay [8] (setting [13]) it was over 12.5 µM; in assay [9] (Trypanosoma brucei), over 25000 nM.
With `CCc1c(C)c(C#N)c2nc3ccccc3n2c1O` [GNF7686], the EC50 in assay [1] (Trypanosoma brucei) is over 25 µM; in [2] (setting [10]) it was 730 ± 40 nM; in assay [2] (Trypanosoma cruzi, epimastigote clones, read-out: EC50 of three clones isolated from the GNF7686-resistant culture), about 1000 nM; in assay [3] (setting [11]), over 40 µM; in assay [4] (setting [11]), 5000 nM; in [5] (Leishmania donovani), 0.46 ± 0.28 µM. Moreover, the EC50 in assay [6] (Leishmania donovani) was 0.46 ± 0.12 µM; in assay [7] (setting [12]), over 12500 nM; in assay [8] (setting [13]), over 12.5 µM; in assay [9] (Trypanosoma brucei), 590 ± 90 nM. Moreover, in assay [2], the “Shift of epimastigote EC50, GNF7686-resistant vs wild-type” value was ~ 5 fold and ~ 4 fold.
Regarding `CO\C=C(C(=O)OC)/C(C)=C\C=C\c1ccccc1` [Strobilurin], the EC50 in assay [1] (Trypanosoma brucei) was over 25 µM; in [2] (setting [10]), 340 ± 10 nM; in assay [3] (setting [11]), over 40 µM; in assay [4] (setting [11]), 100 ± 20 nM; in assay [5] (Leishmania donovani), 9.1 ± 2.5 µM; in assay [6] (Leishmania donovani) it was 4.3 ± 0.82 µM. Besides, the EC50 in assay [7] (setting [12]) is 460 ± 270 nM; in [8] (setting [13]), over 12.5 µM; in [9] (Trypanosoma brucei) it was 3200 ± 330 nM.
In the case of `CCCCCC[C@H]1C(=O)O[C@H](C)[C@H](NC(=O)c2cccc(NC=O)c2O)C(=O)O[C@@H](C)[C@@H]1OC(=O)CC(C)C` [Antimycin A], the concentration for a half-maximal effect (EC50) in assay [1] (Trypanosoma brucei) was over 25 µM; in assay [2] (setting [10]), 1800 ± 210 nM; in assay [3] (setting [11]), 5 µM; in assay [4] (setting [11]), under 2 nM; in assay [5] (Leishmania donovani), 0.01 ± 0.004 µM; in assay [6] (Leishmania donovani), 0.01 ± 0.003 µM. Moreover, the 50% effective concentration (EC50) in [7] (Plasmodium falciparum, read-out: P. falciparum EC50, D10attB) is 700 ± 340 nM; in assay [8] (Plasmodium falciparum, read-out: P. falciparum EC50, yDHODH-D10attB) it was over 12.5 µM; in [9] (Trypanosoma brucei), 30 ± 2 nM. Further, in [2], the “Shift of epimastigote EC50, GNF7686-resistant vs wild-type” value stood at 40 fold.
Regarding `CO/C(=C/C(N)=O)[C@H](C)[C@H](/C=C/c1csc(-c2csc([C@@H](C)/C=C/C=C/C(C)C)n2)n1)OC` [Myxothiazol], the EC50 in assay [1] is 17.2 ± 3.1 µM; in [2] (GNF7686-resistant T. cruzi culture, seven days, read-out: Epimastigote EC50, DR) it was 430 ± 80 nM; in assay [3] (setting [14]), 30 ± 10 µM; in assay [4] (setting [14]), 70 ± 10 nM; in assay [5], 9.6 ± 3.9 µM; in [6] it was 3.1 ± 0.45 µM. In addition, the EC50 was 300 ± 10 nM in assay [7] (read-out: P. falciparum EC50, D10attB); 8.4 ± 1.6 µM in assay [8] (read-out: P. falciparum EC50, yDHODH-D10attB); 2500 ± 220 nM in [9].
